In patent US11612604B2, “Methods of treating cancer with PLK4 inhibitors” (LUDWIG INSTITUTE FOR CANCER RESEARCH LTD, priority 2017, dated 2023):

Target: T1, PLK4 (Homo sapiens, UniProt O00444)
T1 sequence (O00444 1-970): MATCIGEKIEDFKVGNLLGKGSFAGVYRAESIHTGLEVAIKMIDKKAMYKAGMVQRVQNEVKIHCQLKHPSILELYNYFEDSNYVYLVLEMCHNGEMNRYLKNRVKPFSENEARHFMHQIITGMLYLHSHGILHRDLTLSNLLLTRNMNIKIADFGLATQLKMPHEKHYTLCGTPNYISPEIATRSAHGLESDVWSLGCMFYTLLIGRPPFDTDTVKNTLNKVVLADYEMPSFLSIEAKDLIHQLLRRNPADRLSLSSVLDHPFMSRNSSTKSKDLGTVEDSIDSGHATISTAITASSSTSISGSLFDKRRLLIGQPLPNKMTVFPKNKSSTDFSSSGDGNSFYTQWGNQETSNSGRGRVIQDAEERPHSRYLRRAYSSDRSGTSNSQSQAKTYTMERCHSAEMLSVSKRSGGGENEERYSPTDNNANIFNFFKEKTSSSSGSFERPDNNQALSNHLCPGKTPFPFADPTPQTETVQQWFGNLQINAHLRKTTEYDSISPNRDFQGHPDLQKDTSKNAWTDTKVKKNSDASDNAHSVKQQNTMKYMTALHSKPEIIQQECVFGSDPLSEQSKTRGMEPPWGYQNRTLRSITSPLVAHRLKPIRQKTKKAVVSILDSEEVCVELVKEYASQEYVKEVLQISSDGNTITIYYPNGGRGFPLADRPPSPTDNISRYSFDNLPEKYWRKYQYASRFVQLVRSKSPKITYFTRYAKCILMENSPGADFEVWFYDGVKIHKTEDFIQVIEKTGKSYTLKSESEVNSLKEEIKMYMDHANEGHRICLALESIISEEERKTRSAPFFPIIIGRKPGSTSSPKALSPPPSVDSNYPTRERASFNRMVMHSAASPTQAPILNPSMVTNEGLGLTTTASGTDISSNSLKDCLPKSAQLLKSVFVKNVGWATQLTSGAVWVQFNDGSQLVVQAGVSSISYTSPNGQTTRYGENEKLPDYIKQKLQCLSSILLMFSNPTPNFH
Experiment: Activity (IC50) of the Table 1 compounds as PLK4 inhibitors
Type: biochemical
Settings: Table 1, IC50 class

| SMILES | IC50 [nM] |
| --- | --- |
| COc1c(Nc2cc(C)[nH]n2)nc(Sc2ccc(S(=O)(=O)C(C)(C)c3cccc([N+](=O)[O-])c3F)cc2F)nc1N1CCN(CCN(C)C)CC1 | < 100 |
| COc1c(Nc2cc(C)[nH]n2)nc(Sc2ccc(NC(=O)C3CC3)cc2)nc1N1CCN(C)CC1 | < 100 |
| Cc1cc(Nc2nc(Sc3ccc(NC(=O)C4CC4)cc3)nc(N3CCN(C)C(C)C3)c2C)n[nH]1 (stereo not drawn) | < 100 |
| COc1c(Nc2cc(C)[nH]n2)nc(Sc2ccc(S(=O)(=O)C(F)(F)F)cc2)nc1N1CCN(CCN(C)C)CC1 | < 100 |
| COc1c(Nc2cc(C)[nH]n2)nc(Sc2ccc(NC(=O)C3CCCC3)cc2)nc1N1CCN(CCN(C)C)CC1 | < 100 |
| COCC(=O)N1CCN(c2nc(Sc3ccc(NC(C)=O)cc3)nc(Nc3cc(C)[nH]n3)c2OC)CC1 | < 100 |
| COc1c(Nc2cc(C)[nH]n2)nc(Sc2ccc(NC(=O)C3CCCC3)cc2)nc1N1CCN(C(C)=O)CC1 | < 100 |
| COc1c(Nc2cc(C)[nH]n2)nc(Sc2ccc(NC(=O)C3CCCC3)cc2)nc1N1CCOCC1 | < 100 |
| COc1c(Nc2cc(C)[nH]n2)nc(Sc2ccc(NC(=O)C3CC3)cc2)nc1N1CCN(C2CCN(C)CC2)CC1 | < 100 |
| Cc1ccc(Sc2nc(Nc3cc(C)[nH]n3)c(C)c(N(C)C(C)C)n2)cc1 | < 100 |
| COc1c(Nc2cc(C)[nH]n2)nc(Sc2ccc(S(=O)(=O)Cc3ccccc3)cc2)nc1N1CCOC[C@H]1C | < 100 |
| CCS(=O)(=O)c1ccc(Sc2nc(Nc3cc(C)[nH]n3)c(OC)c(N3CCOCC3)n2)cc1 | < 100 |
| Cc1cc(Nc2nc(Sc3ccc(N)cc3)nc(N3CCC(O)CC3)c2C)n[nH]1 | < 100 |
| CC(=O)Nc1ccc(Sc2nc(Nc3cc(C)[nH]n3)c(Cl)c(N3CCCCC3)n2)cc1 | < 100 |
| COc1c(Nc2cc(C)[nH]n2)nc(Sc2ccc(S(=O)(=O)Cc3cccc(F)c3F)cc2F)nc1N1CCOCC1 | < 100 |
| COc1c(Nc2cc(C)[nH]n2)nc(Sc2ccc(S(=O)(=O)Cc3cccc(I)c3F)cc2F)nc1N1CCOCC1 | < 100 |
| CC(=O)Nc1ccc(Sc2nc(Nc3cc(C)[nH]n3)c(Cl)c(N3CCN(C)CC3)n2)cc1 | < 100 |
| COc1c(Nc2cc(C)[nH]n2)nc(Sc2ccc(NC(C)=O)cc2)nc1N1CCN(C(=N)N)CC1 | < 100 |
| COc1c(Nc2cc(C)[nH]n2)nc(Sc2ccc(S(=O)(=O)c3ccccc3)cc2)nc1N1CCN(CCN(C)C)CC1 | < 100 |
| COc1c(Nc2cc(C)[nH]n2)nc(Sc2ccc(S(=O)(=O)C3(c4c(F)c(F)cc(F)c4F)CC3)cc2F)nc1N1CCOCC1 | < 100 |
| COc1c(Nc2cc(C)[nH]n2)nc(Sc2ccc(S(=O)(=O)Cc3cccc([N+](=O)[O-])c3F)cc2F)nc1N1CCC(NC(C)=O)CC1 | < 100 |
| Cc1cc(Nc2nc(Sc3ccc(NC(=O)C4CC4)cc3)nc(NCCN(C)C)c2C)n[nH]1 | < 100 |
| Cc1cc(Nc2nc(Sc3ccc(N(C)C)cc3)nc(N3CCCCC3)c2C)n[nH]1 | < 100 |

| SMILES | IC50 [nM] |
| --- | --- |
| COc1c(Nc2cc(C)[nH]n2)nc(Sc2ccc(S(=O)(=O)C(C)(C)c3c(F)c(F)c(F)c(F)c3F)cc2F)nc1N1CCOCC1 | < 100 |
| COc1c(Nc2cc(C)[nH]n2)nc(Sc2ccc(S(=O)(=O)Cc3ccccc3Cl)cc2)nc1N1CCN(CCN(C)C)CC1 | < 100 |
| COc1ccc(CS(=O)(=O)c2ccc(Sc3nc(Nc4cc(C)[nH]n4)c(OC)c(N4CCCCC4)n3)cc2)cc1 | < 100 |
| COc1c(Nc2cc(C)[nH]n2)nc(Sc2ccc(S(=O)(=O)Cc3ccccc3)cc2)nc1N1CCN(CCN2CCN(C)CC2)CC1 | < 100 |
| CNc1nc(Sc2ccc(NC(=O)C3CC3)cc2)nc(Nc2cc(C)[nH]n2)c1C | < 100 |
| CSc1nc(Nc2cc(C)[nH]n2)c(C)c(N(C)C(C)C)n1 | < 100 |
| COCCNc1nc(Sc2ccc(NC(C)=O)cc2)nc(Nc2cc(C)[nH]n2)c1C | < 100 |
| COc1c(Nc2cc(C)[nH]n2)nc(Sc2ccc(S(=O)(=O)Cc3cccc([N+](=O)[O-])c3F)cc2F)nc1N1CCCC[C@@H]1CO | < 100 |
| Cc1cc(Nc2cc(C)[nH]n2)nc(Sc2ccc(NC(=O)C3CC3)cc2)n1 | < 100 |
| CCN(CC)c1nc(Sc2ccc(NC(=O)C3CC3)cc2)nc(Nc2cc(C)[nH]n2)c1C | < 100 |
| COc1c(Nc2cc(C)[nH]n2)nc(Sc2ccc(S(=O)(=O)Cc3cccc([N+](=O)[O-])c3)cc2)nc1N1CCO[C@@H](C)C1 | < 100 |
| COc1c(Nc2cc(C)[nH]n2)nc(Sc2ccc(S(=O)(=O)C(C)(C)c3c(F)c(F)cc(F)c3F)cc2F)nc1N1CCC(N)C1 (stereo not drawn) | < 100 |
| COc1c(Nc2cc(C)[nH]n2)nc(Sc2ccc(S(=O)(=O)C(F)c3cccc([N+](=O)[O-])c3F)cc2F)nc1N1CCOC[C@@H]1CO (stereo partly drawn) | < 100 |
| COc1c(Nc2cc(C)[nH]n2)nc(Sc2ccc(NC(=O)c3cccc([N+](=O)[O-])c3)cc2F)nc1N1CCOCC1 | 100 to 1000 |
| CC(=O)Nc1ccc(Sc2nc(Nc3cc(C)[nH]n3)cc(N3CCCCC3)n2)cc1 | < 100 |
| Cc1cc(Nc2nc(Sc3ccc(NC(=O)C4CC4)cc3)nc(NC(C)C)c2C)n[nH]1 | < 100 |
| COCCN1CCN(c2nc(Sc3ccc(NC(=O)C4CCCC4)cc3)nc(Nc3cc(C)[nH]n3)c2OC)CC1 | < 100 |
| COc1ccc(CS(=O)(=O)c2ccc(Sc3nc(Nc4cc(C)[nH]n4)c(OC)c(N4CCOCC4)n3)cc2)cc1 | < 100 |
| COc1c(Nc2cc(C)[nH]n2)nc(Sc2ccc(S(=O)(=O)Cc3cccc(OCc4ccccc4)c3)cc2)nc1N1CCN(CCN(C)C)CC1 | < 100 |
| Cc1cc(Nc2nc(Sc3ccccc3)nc(N(C)C)c2C)n[nH]1 | < 100 |
| COC(=O)CN1CCN(c2nc(Sc3ccc(NC(C)=O)cc3)nc(Nc3cc(C)[nH]n3)c2OC)CC1 | < 100 |
| COc1c(Nc2cc(C)[nH]n2)nc(Sc2ccc(S(=O)(=O)Cc3cccc([N+](=O)[O-])c3F)cc2F)nc1N1CCN(CCN(C)C)CC1 | < 100 |
| COc1c(Nc2cc(C)[nH]n2)nc(Sc2ccc(S(=O)(=O)Cc3ccc(F)cc3F)cc2)nc1N1CCN(CCN(C)C)CC1 | < 100 |

| SMILES | IC50 [nM] |
| --- | --- |
| COc1c(Nc2cc(C)[nH]n2)nc(Sc2ccc(S(=O)(=O)C3(c4cccc([N+](=O)[O-])c4F)CC3)cc2F)nc1N1CCC(CC(N)=O)CC1 | < 100 |
| CC(=O)Nc1ccc(Sc2nc(Nc3cc(C)[nH]n3)c(C)c(N3CCC(F)(F)CC3)n2)cc1 | < 100 |
| CC(=O)Nc1ccc(Sc2nc(Nc3cc(C)[nH]n3)c(C)c(N3CCC(OCCN(C)C)CC3)n2)cc1 | < 100 |
| COc1c(Nc2cc(C)[nH]n2)nc(Sc2ccc(NC(C)=O)cc2)nc1N1CCN(CCN2CCOCC2)CC1 | < 100 |
| CCOc1c(Nc2c[nH]c(C)c2)nc(Sc2ccc(NC(=O)C3CCCC3)cc2)nc1N1CCN(C(=O)CCOC)CC1 | 100 to 1000 |
| COc1c(Nc2cc(C)[nH]n2)nc(Sc2ccc(CCc3cccc([N+](=O)[O-])c3F)cc2F)nc1N1CCOCC1 | < 100 |
| Cc1cc(Nc2nc(Sc3ccc(NC(=O)C4CC4)cc3)nc(N(C)C(C)C)c2C)n[nH]1 | < 100 |
| CCS(=O)(=O)c1ccc(Sc2nc(Nc3cc(C)[nH]n3)c(OC)c(N3CCC(CCN(C)C)CC3)n2)cc1 | < 100 |
| COc1c(Nc2cc(C)[nH]n2)nc(Sc2ccc(-c3cc4cccc([N+](=O)[O-])c4o3)cc2F)nc1N1CCOCC1 | 100 to 1000 |
| COc1c(Nc2cc(C)[nH]n2)nc(Sc2ccc(NC(=O)C3CC3)cc2)nc1N1CCC(C(=O)CN(C)C)CC1 | < 100 |
| COc1c(Nc2cc(C)[nH]n2)nc(Sc2ccc(NC(C)=O)cc2)nc1N1CCC(CC(N)=O)CC1 | < 100 |
| COc1c(Nc2cc(C)[nH]n2)nc(Sc2ccc(S(=O)(=O)C(C)(C)c3cccc([N+](=O)[O-])c3F)cc2F)nc1N1CCC(C(N)=O)CC1 | < 100 |
| COc1c(Nc2cc(C)[nH]n2)nc(Sc2ccc(NC(=O)C3CCCC3)cc2)nc1N1CCN(C)CC1 | < 100 |
| COc1c(Nc2cc(C)[nH]n2)nc(Sc2ccc(NC(C)=O)cc2)nc1C1=CCN(CCN(C)C)CC1 | < 100 |
| COc1c(Nc2cc(C)[nH]n2)nc(Sc2ccc(NC(C)=O)cc2)nc1N1CCN(CCN2CCN(C)CC2)CC1 | < 100 |
| COc1c(Nc2cc(C)[nH]n2)nc(Sc2ccc(S(=O)(=O)C(C)(C)c3cccc([N+](=O)[O-])c3F)cc2F)nc1N1CCN(CC(=O)N(C)C)CC1 | < 100 |
| COc1c(Nc2cc(C)[nH]n2)nc(Sc2ccc(S(=O)(=O)Cc3ccccc3)cc2)nc1N1CCN(CCN2CCCC2)CC1 | < 100 |
| COc1c(Nc2cc(C)[nH]n2)nc(Sc2ccc(NC(C)=O)cc2)nc1N1CCC(O)C1 (stereo not drawn) | < 100 |
| Cc1cc(Nc2nc(Sc3ccc(NC(=O)C4CCCC4)cc3)nc(N3CCNCC3)c2C)n[nH]1 | < 100 |
| CC(=O)Nc1ccc(Sc2nc(Nc3cc(C)[nH]n3)c(C)c(N3CCC(O)CC3)n2)cc1 | < 100 |
| COc1c(Nc2cc(C)[nH]n2)nc(Sc2ccc(NC(C)=O)cc2)nc1N1CCN(CCN(C)C)C(C)C1 (stereo not drawn) | < 100 |
| COc1c(Nc2cc(C)[nH]n2)nc(Sc2ccc(NC(=O)C3CC3)cc2)nc1N1CCN(CC2CC2)CC1 | < 100 |
| COc1c(Nc2cc(C)[nH]n2)nc(Sc2ccc(NC(C)=O)cc2)nc1N1CCN(CCNC(=N)N)CC1 | < 100 |
